Reference: patent US20230085307A1, “PYRIDAZINONE COMPOUND AND HERBICIDE” (NISSAN CHEMICAL CORPORATION, priority 2019, published 2023)

Assays:
barnyard grass [1] = test: Test Example 5: herbicidal effect by foliage application, plastic box (Table 20, symbol H); assay type: in vivo, barnyard grass (Echinochloa crus-galli)
In short: (§1)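 Post-emergence foliar test in sterilized diluvial soil. Compound applied as water-diluted emulsion at a predetermined rate to 14-day-old plants; evaluation at three weeks.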

Italian ryegrass = test: Test Example 5: herbicidal effect by foliage application, plastic box (Table 20, symbol K); assay type: in vivo, Italian ryegrass (Lolium multiflorum)
In short: as §1

chickweed = test: Test Example 5: herbicidal effect by foliage application, plastic box (Table 20, symbol P); assay type: in vivo, common chickweed (Stellaria media)
In short: as §1

windgrass = test: Test Example 5: herbicidal effect by foliage application, plastic box (Table 20, symbol L); assay type: in vivo, windgrass (Apera spica-venti)
In short: as §1

rice flat sedge = test: Test Example 3: herbicidal effect by foliage application, Wagner pot (Table 18, symbol E); assay type: in vivo, rice flat sedge (Cyperus iria); conditions: 320 g/ha
In short: (§2)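 Plants were sown in alluvial soil held under 0.1–0.5 cm standing water and grown 14 days in a greenhouse at 25–30 °C. An emulsifiable formulation, water-diluted to the set dose, was then sprayed onto the foliage, and effects were scored three weeks later using previously defined criteria.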

redroot pigweed = test: Test Example 5: herbicidal effect by foliage application, plastic box (Table 20, symbol N); assay type: in vivo, redroot pigweed (Amaranthus retroflexus)
In short: as §1

barnyard grass [2] = test: Test Example 3: herbicidal effect by foliage application, Wagner pot (Table 18, symbol H); assay type: in vivo, barnyard grass (Echinochloa crus-galli); conditions: 320 g/ha
In short: as §2

velvetleaf = test: Test Example 5: herbicidal effect by foliage application, plastic box (Table 20, symbol M); assay type: in vivo, velvetleaf (Abutilon theophrasti)
In short: as §1

southern crabgrass = test: Test Example 5: herbicidal effect by foliage application, plastic box (Table 20, symbol F); assay type: in vivo, southern crabgrass (Digitaria ciliaris)
In short: as §1

persian speedwell = test: Test Example 5: herbicidal effect by foliage application, plastic box (Table 20, symbol R); assay type: in vivo, Persian speedwell (Veronica persica)
In short: as §1

wild oat = test: Test Example 5: herbicidal effect by foliage application, plastic box (Table 20, symbol I); assay type: in vivo, wild oat (Avena fatua)
In short: as §1

green foxtail = test: Test Example 5: herbicidal effect by foliage application, plastic box (Table 20, symbol G); assay type: in vivo, green foxtail (Setaria viridis)
In short: as §1

blackgrass = test: Test Example 5: herbicidal effect by foliage application, plastic box (Table 20, symbol J); assay type: in vivo, blackgrass (Alopecurus myosuroides)
In short: as §1

lambsquarters = test: Test Example 5: herbicidal effect by foliage application, plastic box (Table 20, symbol O); assay type: in vivo, lambsquarters (Chenopodium album)
In short: as §1

Chinese sprangletop = test: Test Example 3: herbicidal effect by foliage application, Wagner pot (Table 18, symbol D); assay type: in vivo, chinese sprangletop (Leptochloa chinensis); conditions: 320 g/ha
In short: as §2

[3] = amount of applied herbicide 320 g/ha, foliage application after 14-day growth, evaluated three weeks after application
[4] = foliage application, AAH 80 g/ha, three weeks after application
[5] = foliage application, 320 g/ha, three weeks after application

Compound: CCCC(=O)Oc1c(C)nn(C)c(=O)c1-c1c(-c2ccc(C(C)C)cc2)sc2cc(F)c(F)cc12 [5-006]
- Herbicidal effect by foliage application, H: barnyard grass (barnyard grass [1]; [3]): 0 (Herbicidal rate of 5% or less (almost no effect))
- Herbicidal effect by foliage application, K: Italian ryegrass (Italian ryegrass; [3]): 0 (Herbicidal rate of 5% or less (almost no effect))
- Herbicidal effect by foliage application, P: chickweed (chickweed; [3]): 4 (Herbicidal rate of 70% or more and less than 90%)
- Herbicidal effect by foliage application, L: windgrass (windgrass; [3]): 0 (Herbicidal rate of 5% or less (almost no effect))
- herbicidal effect on rice flat sedge (E) (rice flat sedge): 3 (Herbicidal rate of 40% or more and less than 70%)
- Herbicidal effect by foliage application, N: redroot pigweed (redroot pigweed; [3]): 3 (Herbicidal rate of 40% or more and less than 70%)
- herbicidal effect on barnyard grass (H) (barnyard grass [2]): 4 (Herbicidal rate of 70% or more and less than 90%)
- Herbicidal effect by foliage application, M: velvetleaf (velvetleaf; [3]): 3 (Herbicidal rate of 40% or more and less than 70%)
- Herbicidal effect by foliage application, F: southern crabgrass (southern crabgrass; [3]): 0 (Herbicidal rate of 5% or less (almost no effect))
- Herbicidal effect by foliage application, R: persian speedwell (persian speedwell; [3]): 1 (Herbicidal rate of 5% or more and less than 20%)
- Herbicidal effect by foliage application, I: wild oat (wild oat; [3]): 0 (Herbicidal rate of 5% or less (almost no effect))
- Herbicidal effect by foliage application, G: green foxtail (green foxtail; [3]): 0 (Herbicidal rate of 5% or less (almost no effect))
- Herbicidal effect by foliage application, J: blackgrass (blackgrass; [3]): 0 (Herbicidal rate of 5% or less (almost no effect))
- Herbicidal effect by foliage application, O: lambsquarters (lambsquarters; [3]): 3 (Herbicidal rate of 40% or more and less than 70%)
- herbicidal effect on Chinese sprangletop (D) (Chinese sprangletop): 1 (Herbicidal rate of 5% or more and less than 20%)

Compound: COc1cc(OC)cc(-c2sc3ccccc3c2-c2c(O)c(OC)nn(C)c2=O)c1 [1-184]
- H: barnyard grass, herbicidal effect (barnyard grass [1]; [4]): 0 (Herbicidal rate of 5% or less (almost no effect))
- K: Italian ryegrass, herbicidal effect (Italian ryegrass; [4]): 0 (Herbicidal rate of 5% or less (almost no effect))
- P: chickweed, herbicidal effect (chickweed; [4]): 4 (Herbicidal rate of 70% or more and less than 90%)
- L: windgrass, herbicidal effect (windgrass; [4]): 0 (Herbicidal rate of 5% or less (almost no effect))
- N: redroot pigweed, herbicidal effect (redroot pigweed; [4]): 0 (Herbicidal rate of 5% or less (almost no effect))
- M: velvetleaf, herbicidal effect (velvetleaf; [4]): 0 (Herbicidal rate of 5% or less (almost no effect))
- F: southern crabgrass, herbicidal effect (southern crabgrass; [4]): 0 (Herbicidal rate of 5% or less (almost no effect))
- R: persian speedwell, herbicidal effect (persian speedwell; [4]): 0 (Herbicidal rate of 5% or less (almost no effect))
- I: wild oat, herbicidal effect (wild oat; [4]): 0 (Herbicidal rate of 5% or less (almost no effect))
- G: green foxtail, herbicidal effect (green foxtail; [4]): 0 (Herbicidal rate of 5% or less (almost no effect))
- J: blackgrass, herbicidal effect (blackgrass; [4]): 0 (Herbicidal rate of 5% or less (almost no effect))
- O: lambsquarters, herbicidal effect (lambsquarters; [4]): 0 (Herbicidal rate of 5% or less (almost no effect))

Compound: CCOc1ccccc1-c1sc2cc(O)ccc2c1-c1c(O)c(C)nn(C)c1=O [3-097]
- H: barnyard grass, herbicidal effect grade (barnyard grass [1]; [5]): 2 (Herbicidal rate of 20% or more and less than 40%)
- K: Italian ryegrass, herbicidal effect grade (Italian ryegrass; [5]): 0 (Herbicidal rate of 5% or less (almost no effect))
- P: chickweed, herbicidal effect grade (chickweed; [5]): 3 (Herbicidal rate of 40% or more and less than 70%)
- L: windgrass, herbicidal effect grade (windgrass; [5]): 2 (Herbicidal rate of 20% or more and less than 40%)
- herbicidal effect on rice flat sedge (E) (rice flat sedge): 3 (Herbicidal rate of 40% or more and less than 70%)
- N: redroot pigweed, herbicidal effect grade (redroot pigweed; [5]): 4 (Herbicidal rate of 70% or more and less than 90%)
- herbicidal effect on barnyard grass (H) (barnyard grass [2]): 4 (Herbicidal rate of 70% or more and less than 90%)
- M: velvetleaf, herbicidal effect grade (velvetleaf; [5]): 3 (Herbicidal rate of 40% or more and less than 70%)
- F: southern crabgrass, herbicidal effect grade (southern crabgrass; [5]): 4 (Herbicidal rate of 70% or more and less than 90%)
- R: persian speedwell, herbicidal effect grade (persian speedwell; [5]): 3 (Herbicidal rate of 40% or more and less than 70%)
- I: wild oat, herbicidal effect grade (wild oat; [5]): 1 (Herbicidal rate of 5% or more and less than 20%)
- G: green foxtail, herbicidal effect grade (green foxtail; [5]): 5 (Herbicidal rate of 90% or more (almost completely withered))
- J: blackgrass, herbicidal effect grade (blackgrass; [5]): 0 (Herbicidal rate of 5% or less (almost no effect))
- O: lambsquarters, herbicidal effect grade (lambsquarters; [5]): 3 (Herbicidal rate of 40% or more and less than 70%)
- herbicidal effect on Chinese sprangletop (D) (Chinese sprangletop): 4 (Herbicidal rate of 70% or more and less than 90%)
